Values quoted from earlier work, collected in US20080182823A1, “POLYMER-LINKED-BIOPHOSPHONATE INHALANT FORMULATIONS AND METHODS FOR USING THE SAME” (priority 2007, published 2008).

System: antral mucosa
Conditions: rat models; Lichtenberger et al., Dig. Dis. Sci. 45(9):1792-1801, 2000

## NCCCC(O)(P(=O)(O)O)P(=O)(O)O [alendronate, (4-amino-1-hydroxybutylidene)-bis-phosphonate]
  antral mucosal injury: cause antral mucosal injury

## O=P(O)(O)C(O)(Cc1cccnc1)P(=O)(O)O [risedronate, [1-Hydroxy-2-(3-pyridinyl)-ethylidine] bis-phosphonate]
  antral mucosal injury: cause antral mucosal injury
